Assay results from patent publication US20020132802A1, “Cytoprotective polycyclic compounds” (Washington Univeristy, priority 2000, published 2002).
Read-outs that look alike come from different tables or passages of the source.

Tested on: HT-22 cells
Assay: HT-22 Cell Neuroprotection Assay (glutamate-induced cell death, calcein AM viability)
Type: cell-based, murine
Conditions: about 16 h exposure
Method: Method: HT-22 Cell Neuroprotection Assay
HT-22 cells (immortalized hippocampal neurons of murine origin) were maintained in DMEM media (Life Technologies, Inc., Gaitherburg, Md.) supplemented with 10% charcoal-stripped FBS (HyClone Laboratories, Inc., Logan, Utah) and 20 μg/mL gentamycin, according to standard culture conditions.
Cells were plated at a density of 5,000 cells/well in clear-bottomed Nunc 96-well plates (Fisher Scientific, Orlando, Fla.) and allowed to incubate overnight. Steroids dissolved in DMSO were added at concentrations ranging from 0.01-10 μM and were co-administered with glutamate (10 mM or 20 mM). DMSO was used at concentrations of 0.1% vol/vol as a vehicle control and had no discernible effect on cell viability. After about 16 h of glutamate exposure, cells were rinsed with PBS, pH 7.4, and viability was assessed by the addition of 25 μM calcein AM (Molecular Probes, Inc., Eugene, Oreg.) in PBS for 15 min at room temperature. Fluorescence was determined (excitation 485 nm, emission 530 nm) using a fluorescence FL600 microplate reader (Biotek, Winooski, Vt.). Cells that were lysed by addition of methanol were used for blank readings. All data were normalized to % cell death, as calculated by (control value −insult value)/control value×100.

C[C@]12CC[C@@H]3c4ccc(O)cc4CC[C@H]3[C@@H]1CCC2=O [Estrone, estrone, reference compound]
EC50 (Mus musculus, co-administered with 10 mM glutamate, read-out: Steroid concentration needed to protect 50% of neurons killed by 10 mM Glutamate ED50): 3030 nM

C[C@@]12CC=C3c4ccc(O)cc4CC[C@@H]3[C@H]1CC[C@H]2O [ZYC-12]
EC50 (co-administered with 10 mM glutamate, read-out: Steroid concentration needed to protect 50% of neurons killed by 10 mM Glutamate ED50): 530 nM | EC50 (co-administered with 20 mM glutamate, read-out: Steroid concentration needed to protect 50% of neurons killed by 20 mM Glutamate ED50): 1430 nM
